{"source": "paper PMC11078216", "about": "“Discovery of potent and selective activity-based probes (ABPs) for the deubiquitinating enzyme USP30” (RSC Chemical Biology, 2024)"}
{"molecular_target": "T1, USP30 (Homo sapiens, UniProt Q70CQ3)", "T1 construct": "Catalog #E-582 residues 57-517; purchased E-582", "T1 sequence (Q70CQ3 57-517)": "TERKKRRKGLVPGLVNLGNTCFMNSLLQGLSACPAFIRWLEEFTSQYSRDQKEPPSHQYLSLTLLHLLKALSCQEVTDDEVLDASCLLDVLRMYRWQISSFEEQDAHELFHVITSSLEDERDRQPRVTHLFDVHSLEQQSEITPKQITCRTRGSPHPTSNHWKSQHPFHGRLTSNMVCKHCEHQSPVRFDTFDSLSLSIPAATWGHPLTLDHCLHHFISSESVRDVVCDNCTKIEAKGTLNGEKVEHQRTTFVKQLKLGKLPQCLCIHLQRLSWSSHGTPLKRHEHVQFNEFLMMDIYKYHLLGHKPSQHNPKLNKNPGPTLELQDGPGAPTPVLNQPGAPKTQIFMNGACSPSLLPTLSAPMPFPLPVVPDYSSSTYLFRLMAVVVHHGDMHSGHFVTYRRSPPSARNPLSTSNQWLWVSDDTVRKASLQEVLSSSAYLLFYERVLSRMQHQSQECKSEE", "assay": "USP30 biochemical IC50 fluorescence polarisation assay using Ub-Lys(TAMRA)-Gly", "conditions": "30 min incubation, USP30 5 nM, Ub-Lys(TAMRA)-Gly 100 nM; read-out: IC50 against USP30", "method": "We first confirmed biochemical inhibition of USP30 with our probes in a fluorescence polarisation (FP) assay using a TAMRA labelled Lys-Gly dipeptide linked to ubiquitin via an isopeptide bond (Ub-Lys(TAMRA)-Gly). USP30 (5 nM) was incubated across a concentration series of test compound for 30 min, followed by FP measurement after addition of Ub-Lys(TAMRA)-Gly (100 nM).\n4. Biochemical and biological methods and proteomics\n1) Biochemical USP30 fluorescence polarisation (FP) assay using Ub-Lys(TAMRA)-Gly a. USP30 biochemical IC50 assay\nReactions were performed in triplicate in black 384 well plates (Greiner #784076) in a final reaction volume of 21 μL. Compound dilutions were prepared at 21× final concentration (2000 nM for a final concentration of 100 nM) in 50% DMSO/water. USP30 was diluted in reaction buffer A (40 mM Tris, pH 7.5, 0.005% Tween 20, 0.5 mg/ml BSA, 5 mM betamercaptoethanol) and 10 μL of diluted 10.5 nM USP30 was added to the compound (final concentration 5 nM). Enzyme and compound were incubated for 30 min at room temperature. Reactions were initiated by the addition of 10 ul 200 nM (final concentration 100 nM) of TAMRA labeled peptide linked to ubiquitin via an iso-peptide bond (Ub-Lys(TAMRA)-Gly, UbiQ-012). Reactions were read immediately after substrate addition using a Pherastar Plus (BMG Labtech; λEx 531 nm, λEm 579 nm). IC50 values were determined by plotting percentage USP30 activity against compound concentration and fitting a four -parameter dose-response curve (Graphpad Prism 5.03). […]\nKinetic progress curves were fitted to equation y = (vi/kobs) (1 − exp(−kobs*x)) to determine the kobs value (for first 30 min data). The kobs value was then plotted against the inhibitor concentration to […]", "units": {"IC50": "nM"}}
{"smiles": "N#CN1CC[C@@H](NC(=O)c2cc(-c3ccccc3Oc3ccc(N=[N+]=[N-])cc3)n[nH]2)C1", "note": "[IMP-2586]", "IC50": 16.3}
{"smiles": "C#Cc1cccc(-c2cc(NC(=O)CC3CCN(C#N)C3)on2)c1", "note": "(stereo not shown) [IMP-2587]", "IC50": 12.6}
{"smiles": "N#CN1CC[C@H](CC(=O)Nc2cc(-c3cccc(Cl)c3)no2)C1", "note": "[compound 1, reference compound]", "IC50": 18.3}
{"smiles": "N#CN1CC[C@@H](NC(=O)c2cc(-c3ccccc3Oc3ccccc3)n[nH]2)C1", "note": "[compound 3, reference compound]", "IC50": 4.8}
